Results from patent US20250041282A1, “METHOD FOR TREATING INFLAMMATORY PULMONARY DISEASE” (FU JEN CATHOLIC UNIVERSITY, priority 2021, published 2025).

Assays:
[1] = test system: RAW264.7 macrophages; test: ELISA of cytokines in cell culture media; format: cell-based, mouse; settings: pretreated 30 min, 100 ng/ml LPS 24 h; FIG. 5A/5B
Protocol: RANTES (RayBiotech), IL-1β and IL-6 (eBioscience, San Diego, CA, USA) concentrations in cell culture media and mouse serum were measured using ELISA kits according to the manufacturer's instructions. The plates were measured at […] using an Epoch microplate spectrophotometer (BioTek Instruments, Winooski, VT, USA). The concentrations of RANTES, IL-1β and IL-6 in the samples were determined by standard curves.
For identifying the potential signaling pathways which regulate the secretion of IL-6 and RANTES induced by LPS stimulation, RAW264.7 macrophages were pretreated with various kinase inhibitors for 30 min and then stimulated with/without 100 ng/ml LPS for 24 h; the cell culture media was harvested for ELISA assay. […] (FIG. 6A). To investigate whether FJU-C28 could mediate the transcriptional activity of NF-κB (p65), the translocation of NF-κB p65 was examined in LPS-stimulated macrophages.

[2] = test system: RAW264.7 macrophages; test: Western blotting of LPS-stimulated macrophage lysates; format: cell-based, mouse; settings: LPS-induced RAW264.7; FIG. 6D
Excerpt: In brief, cell lysate was separated by 10% SDS-PAGE and transferred to a PVDF membrane (Hybond™-P, Amersham, Piscataway, NJ, USA). The blots were probed with anti-p38 (Catalogue Number: 8690P), anti-p-p38 (Thr180/Tyr182; Catalogue Number: 4511P), anti-ERK44/42 (Catalogue Number: 4695P), anti-p-ERK44/42 (Thr202/Tyr204; Catalogue Number: 4370P), anti-JNK (Catalogue Number: 9258P), anti-p-JNK (Thr183/Tyr185; Catalogue Number: 4668P), anti-p65 (Catalogue Number: 8242S), anti-STAT3 (Catalogue Number: 12640S), anti-p-STAT3 (Tyr705; Catalogue Number: 9145S) and anti-RANTES (Catalogue Number: 2989S) antibodies were provided by Cell Signaling Technology, Inc. (Danvers, MA, USA). Anti-Lamin A/C (Catalogue Number: 101127) antibodies were obtained from GeneTex, Inc. (San Antonio, TX, USA). Anti-β-Actin (Catalogue Number: SC-47778) and anti-COX2 (Catalogue Number: SC-1746) antibody was obtained from Santa Cruz Biotechnology, Inc. (Dallas, Texas, USA). The anti-iNOS (Catalog Number: 610329) antibody was obtained from BD transduction Lab. (San Jose, CA, USA). Bound antibodies were visualized by […] staining (Western Lighting Plus ECL; PerkinElmer, Wellesley, MA, USA) with autoradiography using FUJI Medical X-ray film (Fuji Corporation, Kofu, Yamanashi, Japan) or a MultiGel-21 multifunctional imaging system (TOPBIO, New Taipei, Taiwan). The intensity of the western blot bands was quantified by ImageJ software. The quantitative immunoblot data were normalized to the internal control protein and are expressed as the relative ratio of the treatment group to the control. The data represent the mean±S.D. of at least three independent experiments.

Compound	LPS-induced expression of IL-6 (ELISA), kinase inhibitors [1]	LPS-induced expression of RANTES (ELISA), kinase inhibitors [1]	LPS-induced phosphorylation of STAT3 [2]
Cc1ccc(S(=O)(=O)/C=C/C#N)cc1 [BAY11-7082]	suppressed	suppressed	–
CCOC(=O)C1=CCCC[C@H]1S(=O)(=O)Nc1ccc(F)cc1Cl [CLI-095]	suppressed	suppressed	–
COc1cccc(-c2cc(=O)c3ccccc3o2)c1N [PD98059]	not	–	slightly suppressed
C[S+]([O-])c1ccc(-c2nc(-c3ccncc3)c(-c3ccc(F)cc3)[nH]2)cc1 (stereo not drawn) [SB203580]	suppressed	suppressed	inhibited
